Test results reported in patent publication US8822413B2, “Bifunctional hormone having alpha-MSH activity and natriuretic peptide activity and uses thereof” (Theratechnologies Inc., priority 2007, dated 2014).
pEC50: −log10 of the molar value. Bridge positions count the residues as written; N and C are the ends. Square brackets hold non-standard residues; d marks the D form. Peptide text beside a SMILES is read from it. Nle = CCCC[C@H](N)C(=O)O

Molecular target: T1, ANP receptor (Sus scrofa, UniProt F1SFW3)
T1 construct: ANP receptor-expressing LLC-PK1 cells; endogenous in cells; host or cells: LLC-PK1 cells
T1 sequence (F1SFW3 29-1057): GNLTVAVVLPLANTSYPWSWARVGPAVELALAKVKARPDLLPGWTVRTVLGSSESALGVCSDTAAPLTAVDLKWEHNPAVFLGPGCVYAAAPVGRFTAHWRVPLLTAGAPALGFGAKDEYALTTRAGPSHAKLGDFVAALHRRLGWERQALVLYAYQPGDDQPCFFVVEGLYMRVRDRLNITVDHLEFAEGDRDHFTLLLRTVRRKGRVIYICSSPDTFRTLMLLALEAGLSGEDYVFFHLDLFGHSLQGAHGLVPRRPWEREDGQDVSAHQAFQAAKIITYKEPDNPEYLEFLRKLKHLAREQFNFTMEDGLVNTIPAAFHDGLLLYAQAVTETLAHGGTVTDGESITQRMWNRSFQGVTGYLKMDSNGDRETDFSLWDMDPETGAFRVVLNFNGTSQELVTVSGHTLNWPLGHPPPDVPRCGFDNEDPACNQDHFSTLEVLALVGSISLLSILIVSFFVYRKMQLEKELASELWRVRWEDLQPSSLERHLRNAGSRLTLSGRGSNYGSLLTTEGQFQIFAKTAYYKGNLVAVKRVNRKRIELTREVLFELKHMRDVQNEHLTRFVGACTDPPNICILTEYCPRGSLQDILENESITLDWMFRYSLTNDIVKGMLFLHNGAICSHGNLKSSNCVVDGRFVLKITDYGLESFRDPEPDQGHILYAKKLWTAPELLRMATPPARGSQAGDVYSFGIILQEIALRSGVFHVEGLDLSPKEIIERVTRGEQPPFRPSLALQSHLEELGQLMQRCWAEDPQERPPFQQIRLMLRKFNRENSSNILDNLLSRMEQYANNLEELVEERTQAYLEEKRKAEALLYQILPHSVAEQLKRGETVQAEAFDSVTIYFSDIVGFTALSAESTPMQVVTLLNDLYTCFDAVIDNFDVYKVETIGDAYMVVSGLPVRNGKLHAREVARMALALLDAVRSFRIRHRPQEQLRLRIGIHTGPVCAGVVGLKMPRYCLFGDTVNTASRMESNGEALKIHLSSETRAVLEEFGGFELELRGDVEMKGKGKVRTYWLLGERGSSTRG
Assay: cGMP production in ANP receptor-expressing LLC-PK1 cells
Assay type: cell-based
Details: 30 min stimulation, 10^-6M through 10^-12M
Method: The bifunctional hormone was tested on ANP receptor-expressing LLC-PK1 cells and on MCR1 receptor-expressing B16-F1 cells. Both cell types were cultured 24 hours before the stimulation, in 96-well plates, at a concentration of 1.0×10^5 cells/ml. Before stimulation, cells were starved 2 hours in DPBS only and incubated 10 min in assay buffer (DPBS containing 20 mM HEPES, 0.1% BSA and 500 μM IBMX). The dose response curve of the bifunctional hormone was done for 30 minutes with concentrations of 10^−6M through 10^−12M. Supernatant was collected and cAMP (B16-F1) or cGMP (LLC-PK1) was measured with a radiolabeled kit from GE Healthcare Company.

CC[C@H](C)[C@@H]1NC(=O)[C@H](CCCNC(=N)N)NC(=O)[C@H](CC(=O)O)NC(=O)[C@H](CCSC)NC(=O)[C@H](CCCNC(=N)N)NC(=O)CNC(=O)CNC(=O)[C@H](Cc2ccccc2)NC(=O)[C@@H](NC(=O)[C@H](CO)NC(=O)[C@H](CO)NC(=O)[C@H](CCCNC(=N)N)NC(=O)[C@H](CCCNC(=N)N)NC(=O)CNC(=O)[C@H](Cc2c[nH]c3ccccc23)NC(=O)[C@H](CCCNC(=N)N)NC(=O)[C@H](Cc2ccccc2)NC(=O)[C@H](Cc2c[nH]cn2)NC(=O)[C@H](CCC(=O)O)NC(C)=O)CSSC[C@@H](C(=O)N[C@@H](CC(N)=O)C(=O)N[C@@H](CO)C(=O)N[C@@H](Cc2ccccc2)C(=O)N[C@@H](CCCNC(=N)N)C(=O)N[C@@H](Cc2ccc(O)cc2)C(N)=O)NC(=O)CNC(=O)[C@H](CC(C)C)NC(=O)CNC(=O)[C@H](CO)NC(=O)[C@H](CCC(N)=O)NC(=O)[C@H](C)NC(=O)CNC1=O [SEQ ID NO: 41, Ac-E-H-F-R-W-G-R-R-S-S-[C-F-G-G-R-M-D-R-I-G-A-Q-S-G-L-G-C]-N-S-F-R-Y-NH2] (Ac-EHFRWGRRSSCFGGRMDRIGAQSGLGCNSFRY-NH2; disulfide 11-27)
pEC50 (NR = No response detected): 8.05

CCCC[C@@H]1NC(=O)[C@H](CCCNC(=N)N)NC(=O)CNC(=O)CNC(=O)[C@H](Cc2ccccc2)NC(=O)[C@@H](NC(=O)[C@H](CCCC)NC(=O)[C@@H]2CCCN2C(=O)[C@H](CCCCN)NC(=O)CNC(=O)[C@H](Cc2c[nH]c3ccccc23)NC(=O)[C@H](CCCNC(=N)N)NC(=O)[C@@H](Cc2ccccc2)NC(=O)[C@H](Cc2c[nH]cn2)NC(C)=O)CSSC[C@@H](C(=O)N[C@@H](CC(N)=O)C(=O)N[C@@H](CO)C(=O)N[C@@H](Cc2ccccc2)C(=O)N[C@@H](CCCNC(=N)N)C(=O)N[C@@H](Cc2ccc(O)cc2)C(N)=O)NC(=O)CNC(=O)[C@H](CC(C)C)NC(=O)CNC(=O)[C@H](CO)NC(=O)[C@H](CCC(N)=O)NC(=O)[C@H](C)NC(=O)CNC(=O)[C@H]([C@@H](C)CC)NC(=O)[C@H](CCCNC(=N)N)NC(=O)[C@H](CC(=O)O)NC1=O [SEQ ID NO: 35, Ac-H-f-R-W-G-K-P-Nle-[C-F-G-G-R-Nle-D-R-I-G-A-Q-S-G-L-G-C]-N-S-F-R-Y-NH2] (Ac-H[dF]RWGKP[Nle]CFGGR[Nle]DRIGAQSGLGCNSFRY-NH2; disulfide 9-25)
pEC50 (NR = No response detected): 6.66

CC[C@H](C)[C@@H]1NC(=O)[C@H](CCCNC(=N)N)NC(=O)[C@H](CC(=O)O)NC(=O)[C@H](CCSC)NC(=O)[C@H](CCCNC(=N)N)NC(=O)CNC(=O)CNC(=O)[C@H](Cc2ccccc2)NC(=O)[C@@H](NC(=O)[C@H](CO)NC(=O)[C@H](CO)NC(=O)[C@H](CCCNC(=N)N)NC(=O)[C@H](CCCNC(=N)N)NC(=O)CNC(=O)[C@H](Cc2c[nH]c3ccccc23)NC(=O)[C@H](CCCNC(=N)N)NC(=O)[C@@H](Cc2ccccc2)NC(=O)[C@H](Cc2c[nH]cn2)NC(C)=O)CSSC[C@@H](C(=O)N[C@@H](CC(N)=O)C(=O)N[C@@H](CO)C(=O)N[C@@H](Cc2ccccc2)C(=O)N[C@@H](CCCNC(=N)N)C(=O)N[C@@H](Cc2ccc(O)cc2)C(N)=O)NC(=O)CNC(=O)[C@H](CC(C)C)NC(=O)CNC(=O)[C@H](CO)NC(=O)[C@H](CCC(N)=O)NC(=O)[C@H](C)NC(=O)CNC1=O [SEQ ID NO: 39, Ac-H-f-R-W-G-R-R-S-S-[C-F-G-G-R-M-D-R-I-G-A-Q-S-G-L-G-C]-N-S-F-R-Y-NH2] (Ac-H[dF]RWGRRSSCFGGRMDRIGAQSGLGCNSFRY-NH2; disulfide 10-26)
pEC50 (NR = No response detected): 7.28

CCCC[C@@H]1NC(=O)[C@H](CCCNC(=N)N)NC(=O)CNC(=O)CNC(=O)[C@H](Cc2ccccc2)NC(=O)[C@H](Cc2c[nH]cn2)NC(=O)[C@@H](NC(=O)[C@@H](N)CCCC)CCC(=O)NCCCC[C@@H](C(=O)N[C@@H](Cc2ccc(O)cc2)C(=O)N[C@@H](CCCNC(=N)N)C(=O)N[C@@H](Cc2c[nH]cn2)C(=O)N[C@H](Cc2ccccc2)C(=O)N[C@@H](CCCNC(=N)N)C(=O)N[C@@H](Cc2c[nH]c3ccccc23)C(N)=O)NC(=O)[C@H](CO)NC(=O)[C@H]([C@@H](C)CC)NC(=O)[C@H](CCCNC(=N)N)NC(=O)[C@H](CC(=O)O)NC1=O [SEQ ID NO: 29, Nle-[E-H-F-G-G-R-Nle-D-R-I-S-K]-Y-R-H-f-R-W-NH2] (H-[Nle]EHFGGR[Nle]DRISKYRH[dF]RW-NH2; lactam 2-13)
pEC50: 5.84

CC[C@H](C)[C@@H]1NC(=O)[C@H](CCCNC(=N)N)NC(=O)[C@H](CC(=O)O)NC(=O)[C@H](CCSC)NC(=O)[C@H](CCCNC(=N)N)NC(=O)CNC(=O)CNC(=O)[C@H](Cc2ccccc2)NC(=O)[C@@H](NC(=O)[C@H](CO)NC(=O)[C@H](CO)NC(=O)[C@H](CCCNC(=N)N)NC(=O)[C@H](CCCNC(=N)N)NC(=O)[C@H](CC(C)C)NC(=O)[C@@H](N)CO)CSSC[C@@H](C(=O)N[C@@H](CC(N)=O)C(=O)N[C@@H](CO)C(=O)N[C@@H](Cc2ccccc2)C(=O)N[C@@H](CCCNC(=N)N)C(=O)N[C@@H](Cc2ccc(O)cc2)C(=O)N[C@@H](Cc2c[nH]cn2)C(=O)N[C@H](Cc2ccccc2)C(=O)N[C@@H](CCCNC(=N)N)C(=O)N[C@@H](Cc2c[nH]c3ccccc23)C(N)=O)NC(=O)CNC(=O)[C@H](CC(C)C)NC(=O)CNC(=O)[C@H](CO)NC(=O)[C@H](CCC(N)=O)NC(=O)[C@H](C)NC(=O)CNC1=O [SEQ ID NO: 40, S-L-R-R-S-S-[C-F-G-G-R-M-D-R-I-G-A-Q-S-G-L-G-C]-N-S-F-R-Y-H-f-R-W-NH2]
pEC50: 5.15

CC[C@H](C)[C@@H]1NC(=O)[C@H](CCCNC(=N)N)NC(=O)[C@H](CC(=O)O)NC(=O)[C@H](CCSC)NC(=O)[C@H](CCCNC(=N)N)NC(=O)CNC(=O)CNC(=O)[C@H](Cc2ccccc2)NC(=O)[C@H](Cc2c[nH]cn2)NC(=O)[C@@H](NC(=O)[C@H](CCSC)NC(=O)[C@@H]2CCCN2C(=O)[C@H](CCCCN)NC(=O)CNC(=O)[C@H](Cc2c[nH]c3ccccc23)NC(=O)[C@H](CCCNC(=N)N)NC(=O)[C@@H](Cc2ccccc2)NC(=O)[C@H](Cc2c[nH]cn2)NC(C)=O)CSSC[C@@H](C(=O)N[C@@H](Cc2ccc(O)cc2)C(=O)N[C@@H](CCCNC(=N)N)C(N)=O)NC(=O)[C@H](CO)NC1=O [SEQ ID NO: 31, Ac-H-f-R-W-G-K-P-M-[C-H-F-G-G-R-M-D-R-I-S-C]-Y-R-NH2] (Ac-H[dF]RWGKPMCHFGGRMDRISCYR-NH2; disulfide 9-20)
pEC50 (NR = No response detected): 7.13

CC[C@H](C)[C@@H]1NC(=O)[C@H](CCCNC(=N)N)NC(=O)[C@H](CC(=O)O)NC(=O)[C@H](CCSC)NC(=O)[C@H](CCCNC(=N)N)NC(=O)CNC(=O)CNC(=O)[C@H](Cc2ccccc2)NC(=O)[C@@H](NC(=O)[C@H](CO)NC(=O)[C@H](CO)NC(=O)[C@H](CCCNC(=N)N)NC(=O)[C@H](CCCNC(=N)N)NC(=O)CNC(=O)[C@H](Cc2c[nH]c3ccccc23)NC(=O)[C@H](CCCNC(=N)N)NC(=O)[C@H](Cc2ccccc2)NC(=O)[C@H](Cc2c[nH]cn2)NC(=O)[C@H](CCC(=O)O)NC(=O)[C@@H](N)CCSC)CSSC[C@@H](C(=O)N[C@@H](CC(N)=O)C(=O)N[C@@H](CO)C(=O)N[C@@H](Cc2ccccc2)C(=O)N[C@@H](CCCNC(=N)N)C(=O)N[C@@H](Cc2ccc(O)cc2)C(N)=O)NC(=O)CNC(=O)[C@H](CC(C)C)NC(=O)CNC(=O)[C@H](CO)NC(=O)[C@H](CCC(N)=O)NC(=O)[C@H](C)NC(=O)CNC1=O [SEQ ID NO: 36, M-E-H-F-R-W-G-R-R-S-S-[C-F-G-G-R-M-D-R-I-G-A-Q-S-G-L-G-C]-N-S-F-R-Y-NH2] (H-MEHFRWGRRSSCFGGRMDRIGAQSGLGCNSFRY-NH2; disulfide 12-28)
pEC50 (NR = No response detected): 7.48

CCCC[C@@H]1NC(=O)[C@H](CCCNC(=N)N)NC(=O)CNC(=O)CNC(=O)[C@H](Cc2ccccc2)NC(=O)[C@H](Cc2c[nH]cn2)NC(=O)[C@@H](NC(=O)[C@H](CCCC)NC(=O)[C@@H]2CCCN2C(=O)[C@H](CCCCN)NC(=O)CNC(=O)[C@H](Cc2c[nH]c3ccccc23)NC(=O)[C@H](CCCNC(=N)N)NC(=O)[C@@H](Cc2ccccc2)NC(=O)[C@H](Cc2c[nH]cn2)NC(C)=O)CSSC[C@@H](C(=O)N[C@@H](Cc2ccc(O)cc2)C(=O)N[C@@H](CCCNC(=N)N)C(N)=O)NC(=O)[C@H](CO)NC(=O)[C@H]([C@@H](C)CC)NC(=O)[C@H](CCCNC(=N)N)NC(=O)[C@H](CC(=O)O)NC1=O [SEQ ID NO: 34, Ac-H-f-R-W-G-K-P-Nle-[C-H-F-G-G-R-Nle-D-R-I-S-C]-Y-R-NH2] (Ac-H[dF]RWGKP[Nle]CHFGGR[Nle]DRISCYR-NH2; disulfide 9-20)
pEC50 (NR = No response detected): 6.88
